“Also recorded” adds a separate entry of the source. Counter-ions that a name gives are not always drawn. Like-named read-outs stand apart in the source and are kept apart here.
Columns and labels:
Huh-7.5.1 cells [1] = conditions: 10 µM
18f-NLuc reporter virus [2] = experiment: microbe, parasite or virus in culture; type: cell-based, Hepatitis A virus; conditions: for activity at 10 µM: Hepatovirus A, Huh-7.5.1, 72 h, read-out: Normalized HAV production
in vitro = conditions: human
HM175/18f virus [3] = conditions: for IC50: read-out: IC50, HAV replication by RT-qPCR
HM175/18f virus [4] = experiment: microbe, parasite or virus in culture; conditions: Hepatovirus A, Huh-7.5.1, read-out: IC50, HAV replication by RT-qPCR
Huh-7.5.1 cells [5] = conditions: Huh-7.5 or Huh-7.5.1 cells, RT-qPCR experiments
18f-NLuc reporter virus [6] = conditions: for IC50: read-out: IC50, HAV replication by NLuc
HAV [7] = conditions: cited from earlier work
293T cells = experiment: Cytotoxicity in 293T cells
[8] = system: mouse-passaged HM175 strain of HAV; parameters: species or system Ifnar1^-/- mice; conditions: in vivo, ip
18f-NLuc reporter virus [9] = experiment: microbe, parasite or virus in culture; type: cell-based, Hepatitis A virus; conditions: 293T cells; read-out: IC50, HAV replication by NLuc
Method: Cells were lysed in 1× passive lysis buffer (Promega, #E1941) for 15 min at room temperature, then lysates were transferred to opaque white 96-well plates (Corning, #3912). NLuc activity was quantified using the NLuc GLOW Assay kit (Nanolight Technology, #325), and FLuc assays were carried out with the Luciferase Assay System (Promega, E1500). Luminescence was measured using a Biotek Synergy II multi-mode plate reader (BioTek Instruments).

18f-NLuc reporter virus [10] = type: cell-based, Hepatitis A virus
HAV [11] = experiment: microbe, parasite or virus in culture; type: cell-based, Hepatitis A virus; conditions: PH5CH8 cells; read-out: IC50, HAV replication by RT-qPCR
HAV IRES = type: cell-based, Hepatitis A virus; conditions: 100 nM
Huh-7.5.1 cells [12] = experiment: Cell viability in the chemical screen (Cell TiterGlo); conditions: 10 µM compound, 72 h

Molecule	Viability Percent DMSO (Huh-7.5.1 cells [1])	activity at 10 µM (18f-NLuc reporter virus [2])	Viability Percent DMSO (Huh-7.5.1 cells [12])	also measured
C=C1CC[C@@H]2[C@](C)(COC(=O)CCC(=O)[O-])[C@H](OC(=O)CCC(=O)O)CC[C@@]2(C)[C@@H]1/C=C/C1=CCOC1=O.[K+] [Dehydroandrographolide Succinate Potasium Salt]	102 Percent DMSO			Normalized HAV production (18f-NLuc reporter virus [2]): 1.19
Clc1ccc(C(Cn2ccnc2)OCc2ccsc2Cl)c(Cl)c1 (centres unmarked) [Vagistat]	93 Percent DMSO	109%		
NC(=O)c1ncn([C@@H]2O[C@H](CO)[C@@H](O)[C@H]2O)n1 [Ribavirin]	117 Percent DMSO	112%		
Nc1nc(=O)n([C@@H]2CS[C@H](CO)O2)cc1F [Emtricitabine]	123 Percent DMSO	120%		
CCc1cc(C(N)=O)ccc1-n1nc(C(C)C)c2c(-n3cnc(-c4cnn(C)c4)c3)ccnc21 [TAS116]				CC50 (in vitro): 835 nM; Blocking of HAV replication (in words) (HM175/18f virus [3]): highly active; IC50 (HM175/18f virus [4]): 84.3 nM
NCCCNCCCCNCCCN [Spermine]	112 Percent DMSO	96%		
Cc1ccc(NC(=O)C(=O)NC2CC(C)(C)NC(C)(C)C2)cc1 [YYA-021]	121 Percent DMSO			Normalized HAV production (18f-NLuc reporter virus [2]): 1.03
COc1cccc(-c2cc(F)ccc2[C@H]2Cc3nc(N)nc(C)c3C(=O)N2)n1 [HSP990]				CC50 (Huh-7.5.1 cells [5]): 56.9 nM; IC50 (HM175/18f virus [3]): 2.2 nM; Blocking of HAV replication (in words) (HM175/18f virus [3]; targeted screen of heat shock protein inhibitors, RT-qPCR): highly active
Vitamin E	97 Percent DMSO			Normalized HAV production (18f-NLuc reporter virus [2]): 1.19
CC(C)CN(C[C@@H](O)[C@H](Cc1ccccc1)NC(=O)O[C@H]1CO[C@H]2OCC[C@H]21)S(=O)(=O)c1ccc(N)cc1 [Darunavir]	106 Percent DMSO	99%		
N#Cc1ccc(COC[C@H]2O[C@@H](n3c(NCc4ccc(Cl)c(Cl)c4)nc4c(N)ncnc43)[C@H](O)[C@@H]2O)cc1 [VER155008]				Anti-HAV activity relative to CC50 (in words) (18f-NLuc reporter virus [6]): only at concentrations close to their CC50; IC50 (18f-NLuc reporter virus [6]): 3320 nM; CC50 (Huh-7.5 cells): > 10000 nM
CC(C)OC(=O)[C@H](C)N[P@](=O)(CO[C@H](C)Cn1cnc2c(N)ncnc21)Oc1ccccc1 [Tenofovir alafenamide]	75 Percent DMSO	141%		
COC(=O)N[C@H](C(=O)NNC[C@H](O)[C@H](Cc1ccccc1)NC(=O)[C@@H](NC(=O)OC)C(C)(C)C)C(C)(C)C [Des(benzylpyridyl) Atazanavi]	159 Percent DMSO			Normalized HAV production (18f-NLuc reporter virus [2]): 0.67
CC(C)(C)Oc1cccc2nc(N)nc(N)c12 [HZ-1157]	16 Percent DMSO			Normalized HAV production (18f-NLuc reporter virus [2]): 2.12
S=C(NCCc1ccccn1)Nc1ccc(Br)cn1 [Trovirdine]	165 Percent DMSO	71%		
NC12CC3CC(CC(C3)C1)C2 [Amantadine hydrochloride]	111 Percent DMSO	87%		
COc1ccccc1[C@H](Cn1c(=O)n(C(C)(C)C(=O)O)c(=O)c2c(C)c(-c3ncco3)sc21)OC1CCOCC1 [firsocostat]				HAV replication in cell culture (in words) (HAV [7]): potently inhibits
JG98				Anti-HAV activity relative to CC50 (in words) (18f-NLuc reporter virus [6]): only at concentrations close to their CC50; IC50 (18f-NLuc reporter virus [6]): 534 nM; CC50 (Huh-7.5 cells): > 1000 nM

Molecule	Viability Percent DMSO (Huh-7.5.1 cells [1])	activity at 10 µM (18f-NLuc reporter virus [2])	Viability Percent DMSO (Huh-7.5.1 cells [12])	also measured
C=CCNC1=C2C[C@@H](C)C[C@H](OC)[C@H](O)[C@@H](C)/C=C(\C)[C@H](OC(N)=O)[C@@H](OC)/C=C\C=C(/C)C(=O)NC(=CC1=O)C2=O [17-AAG]				CC50 (Huh-7.5.1 cells [5]): 418 nM; CC50 (293T cells): > 1000 nM; Area occupied by IBA-positive cells in liver section [8]: significantly reduced; Increase in serum alanine aminotransferase (ALT) activity versus vehicle [8]: significantly lower; Inflammatory cell infiltrates in liver sections (H&E) [8]: notably fewer and smaller in size; Number of IBA1-positive cells in liver section [8]: significantly reduced; Viral RNA in feces versus vehicle [8]: significantly reduced; Viral RNA in liver versus vehicle [8]: significantly reduced; Viral RNA in serum versus vehicle [8]: significantly reduced; IC50 (18f-NLuc reporter virus [9]): 11.7 nM; Fold by which IC50 is below CC50 (HM175/18f virus [3]; hepatocyte-derived cells, RT-qPCR): approximately 30 fold; IC50 (HM175/18f virus [3]): 14.2 nM; NLuc expression at 48 hours post-infection (18f-NLuc reporter virus [10]): neither case did either HSP90 inhibitor reduce NLuc expression; IC50 (HAV [11]): 3.2 nM; GFP synthesis from circRNA HAV IRES reporter (HAV IRES): neither geldanamycin nor 17-AAG inhibited; also recorded: had no effect
Cc1cccc(C)c1N(CC(=O)Nc1ccc(-c2ncon2)cc1)C(=O)C1CCS(=O)(=O)CC1 [Amenamevir]		109%	116 Percent DMSO	
CC(=O)Oc1ccccc1C(=O)Nc1ncc([N+](=O)[O-])s1 [Nitazoxanide]		24%	41 Percent DMSO	
COc1ncnc(NS(=O)(=O)c2ccc(N)cc2)c1OC [Sulfadoxine]		69%	118 Percent DMSO	
O=c1c2ccccc2[se]n1-c1ccccc1 [Ebselen]		56%	123 Percent DMSO	
Cc1c(-c2cnccn2)ssc1=S [Oltipraz]	90 Percent DMSO	113%		
CCS(=O)(=O)CCn1c([N+](=O)[O-])cnc1C [Tinidazole]		78%	108 Percent DMSO	
CC(C)c1cc(-c2n[nH]c(=O)n2-c2ccc3c(ccn3C)c2)c(O)cc1O [STA9090]				CC50 (in vitro): 147 nM; Blocking of HAV replication (in words) (HM175/18f virus [3]): highly active; IC50 (HM175/18f virus [4]): 12.1 nM
CN(C(=O)CN(CCO)CC(=O)N(C)C(C)(C)Cc1ccccc1)C(C)(C)Cc1ccccc1 [Oxethazaine]		76%	102 Percent DMSO	
O=C(Nc1ncc([N+](=O)[O-])s1)c1ccccc1O [Tizoxanide]		113%	72 Percent DMSO	
CN(C)CC[C@@H](c1ccc(Cl)cc1)c1ccccn1 [Dexchlorpheniramine Maleate]		74%	118 Percent DMSO	
CC1(C)O[C@H]2CC(=O)OC[C@]23[C@H]2CC[C@@]4(C)[C@H](c5ccoc5)OC(=O)[C@H]5O[C@]54[C@]2(C)C(=O)C[C@@H]13 [Limonin]		85%	111 Percent DMSO	
O=C1CCC[C@@H]2[C@H]3CCC[N+]4([O-])CCC[C@@H](CN12)[C@@H]34 (some centres unmarked) [Oxymatrine]		100%	92 Percent DMSO	
C[C@@H]1CC[C@H]2[C@@H](C)C(=O)O[C@@H]3O[C@@]4(C)CC[C@@H]1[C@]32OO4 [Artemisinin]		76%	101 Percent DMSO	
Cc1cn([C@H]2C=C[C@@H](CO)O2)c(=O)[nH]c1=O [Stavudine]		101%	101 Percent DMSO	
O=C1Nc2ccc(Cl)cc2[C@@](C#CC2CC2)(C(F)(F)F)O1 [Efavirenz]		46%	165 Percent DMSO	
Cc1nc(N(C)C(=O)Cc2ccc(-c3ccccn3)cc2)sc1S(N)(=O)=O [Pritelivir]		78%	127 Percent DMSO	
O=c1[nH]c(=O)n([C@H]2C[C@H](O)[C@@H](CO)O2)cc1/C=C/Br [Brivudine]		94%	110 Percent DMSO	
